Assay results taken from the NIST ThermoML archive (doi:10.1016/j.jct.2018.08.038).
Numbers after ± are expanded uncertainties.

Settings: 101.33 kPa, Liquid, Vibrating tube method

SMILES	mass density (303.15 K) [kg/m3]	mass density (313.15 K) [kg/m3]	mass density (323.15 K) [kg/m3]	mass density (333.15 K) [kg/m3]
CCCC[n+]1ccccc1.N#C[N-]C#N [1-butylpyridinium dicyanamide]	1074.8 ± 2	1069.7 ± 2	1064.4 ± 2	1059.5 ± 2
CCCC[n+]1ccccc1.O=S(=O)([N-]S(=O)(=O)C(F)(F)F)C(F)(F)F [1-butylpyridinium bis[(trifluoromethyl)sulfonyl]imide]	1449.8 ± 2.1	1440.3 ± 2.1	1431.1 ± 2.1	1421.9 ± 2.1
